# Reference: patent US20250092014A1, “COMPOUNDS AND METHODS OF ACTIVATING LIPOPROTEIN LIPASE” (Metrea Biosciences, Inc., priority 2021, published 2025)
# Molecular target: T1, LPL (native bovine milk protein) inactivated by ANGPTL4 (Bos taurus, UniProt P11151)
# T1 construct: from tissue; host or cells: bovine milk (LPL); E. coli (GST-ANGPTL4)
# T1 sequence (P11151 29-478): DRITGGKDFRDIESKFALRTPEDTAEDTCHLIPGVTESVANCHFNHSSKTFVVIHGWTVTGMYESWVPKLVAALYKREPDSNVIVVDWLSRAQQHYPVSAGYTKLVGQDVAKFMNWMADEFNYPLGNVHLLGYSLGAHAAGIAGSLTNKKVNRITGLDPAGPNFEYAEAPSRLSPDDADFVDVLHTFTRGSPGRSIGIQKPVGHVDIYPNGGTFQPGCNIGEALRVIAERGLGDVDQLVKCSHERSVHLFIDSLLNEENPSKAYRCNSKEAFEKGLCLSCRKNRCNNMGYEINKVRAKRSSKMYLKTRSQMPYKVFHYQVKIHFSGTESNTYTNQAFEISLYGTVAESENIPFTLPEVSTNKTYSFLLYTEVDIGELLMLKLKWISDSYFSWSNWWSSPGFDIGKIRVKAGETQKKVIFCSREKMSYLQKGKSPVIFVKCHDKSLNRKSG
# Experiment: LPL ANGPTL4 protection assay (LPL fluorescence assay, resorufin butyrate substrate)
# Assay type: biochemical
# Details: LPL activation activity, LPL 2.5 nM, ANGPTL4 20 nM
# Experimental: LPL is inactivated by angiopoietin-like 4 (ANGPTL4). Compounds of the present disclosure were for activity using the following protection assay. Briefly, the assay was performed in a black opaque 96-well microtiter plate with final volume of 100 μL using a buffer consisting of 50 mM HEPES (pH 7.2), 150 mM NaCl and 0.03% Triton X-100. Compounds were prepared as 10 mM stocks in DMSO, with subsequent serial dilutions performed in DMSO. Two microliters of test compounds were added to the microtiter plate, followed by 49-PL of LPL (native bovine milk protein affinity purified using heparin-affinity chromatography) in assay buffer. The plate contents were mixed using an orbital shaker and allowed to incubate for 5 minutes at room temperature. The enzymatic assay was initiated by the addition of a mixture of 49 μL of 50 μM resorufin butyrate (Santa Cruz #sc-208302; prepared from a 10 mM DMSO stock) and ANGPTL4 (N-terminal GST construct consisting of residues 26-164 expressed in E. coli) in assay buffer. The final concentrations of LPL and ANGPTL4 were 2.5 nM and 20 nM, respectively. The assay was allowed to proceed at 30° C. for 25 minutes with kinetic monitoring (Ex560/Em585) followed by an endpoint reading which was used for analysis.
# Data was analyzed in Graphpad Prism (version 6.0, GraphPad Software, Inc., San Diego, CA) using a variable slope four parameter fit of the equation:
# Y=Bottom+(Top-Bottom)/(1+10^((Log EC50−X)*HillSlope)),
# where X is the concentration of test compound, Y corresponds to the amount of product expressed in relative fluorescence units, and Top and Bottom refer to the plateaus of the curve. Percent activation (protection) of test compound was calculated relative to zero effect wells (ZEW; LPL, ANGPTL4 and substrate) and maximum effect wells (MEW; LPL plus substrate): ((test well−ZEW)/(MEW−ZEW))*100.
row,EC50,SMILES
1,14.9 µM,"Cc1ccc(NC(=O)c2cc(NCc3ccc(-c4nsc(=O)[nH]4)cc3)ccc2N2CCCCC2)cc1 [Compound 168, N-(4-methylphenyl)-5-({[4-(5-oxo-4,5-dihydro-1,2,4-thiadiazol-3-yl)phenyl]methyl}amino)-2-(piperidin-1-yl)benzamide]"
2,6.38 µM,"Cc1ccc(NC(=O)c2cc(NCc3cc(-c4nnn[nH]4)ccc3F)ccc2N2CCCCC2)cc1 [Compound 169, 5-((2-fluoro-5-(1H-tetrazol-5-yl)benzyl)amino)-2-(piperidin-1-yl)-N-(p-tolyl)benzamide]"
3,4.13 µM,"Cn1nc(C(=O)Nc2cc(C(=O)Nc3ccccc3CC(=O)O)ccc2N2CCCCC2)cc1-c1ccccc1 [Compound 163, 2-(2-(3-(1-methyl-5-phenyl-1H-pyrazole-3-carboxamido)-4-(piperidin-1-yl)benzamido)phenyl)acetic acid]"
4,8.1 µM,"Cn1nc(C(=O)Nc2cc(C(=O)Nc3cc(-c4nnn[nH]4)ccc3F)ccc2N2CCCCC2)c2ccccc21 [Compound 166, N-(5-((2-fluoro-5-(1H-tetrazol-5-yl)phenyl)carbamoyl)-2-(piperidin-1-yl)phenyl)-1-methyl-1H-indazole-3-carboxamide]"
5,5.16 µM,"O=C(Nc1ccc(-c2nnn[nH]2)cc1)c1ccc(N2CCCCC2)c(NC(=O)c2nn(CC(F)(F)F)c3ccccc23)c1 [Compound 164, N-(5-((4-(1H-tetrazol-5-yl)phenyl)carbamoyl)-2-(piperidin-1-yl)phenyl)-1-(2,2,2-trifluoroethyl)-1H-indazole-3-carboxamide]"
6,3.2 µM,"O=C(O)Cc1ccccc1NC(=O)c1ccc(N2CCCCC2)c(NC(=O)c2cc3n(n2)CCCC3)c1 [Compound 161, 2-(2-(4-(piperidin-1-yl)-3-(4,5,6,7-tetrahydropyrazolo[1,5-a]pyridine-2-carboxamido)benzamido)phenyl)acetic acid]"
7,7.99 µM,"Cn1nc(C(=O)Nc2cc(C(=O)Nc3ccc(-c4nnn[nH]4)cc3)ccc2N2CCCCC2)c2ccc(F)cc21 [Compound 165, N-(5-((4-(1H-tetrazol-5-yl)phenyl)carbamoyl)-2-(piperidin-1-yl)phenyl)-6-fluoro-1-methyl-1H-indazole-3-carboxamide]"
8,9.41 µM,"Cc1ccc(NC(=O)c2cc(-n3cc4ccc(-c5nnn[nH]5)cc4n3)ccc2N2CCCCC2)cc1 [Compound 167, 5-(6-(1H-tetrazol-5-yl)-2H-indazol-2-yl)-2-(piperidin-1-yl)-N-(p-tolyl)benzamide]"

row,SMILES,EC50
1,"CC(C)n1nc(C(=O)Nc2cc(C(=O)Nc3ccc(F)cc3CC(=O)O)ccc2N2CCCCC2)c2ccccc21 [Compound 162, 2-(5-fluoro-2-(3-(1-isopropyl-1H-indazole-3-carboxamido)-4-(piperidin-1-yl)benzamido)phenyl)acetic acid]",3.25 µM
2,"O=C(O)Cc1cc(F)ccc1NC(=O)c1ccc(N2CCCCC2)c(NC(=O)c2nn(Cc3ccccc3)c3ccccc23)c1 [Compound 159, 2-(2-(3-(1-benzyl-1H-indazole-3-carboxamido)-4-(piperidin-1-yl)benzamido)-5-fluorophenyl)acetic acid]",0.85 µM
3,"CCn1nc(C(=O)Nc2cc(C(=O)Nc3ccc(F)cc3CC(=O)O)ccc2N2CCCCC2)c2ccccc21 [Compound 160, 2-(2-(3-(1-ethyl-1H-indazole-3-carboxamido)-4-(piperidin-1-yl)benzamido)-5-fluorophenyl)acetic acid]",1.66 µM

# Molecular target: T2, LPL:sGPIHBP1 complex (Homo sapiens, UniProt P06858)
# T2 sequence (P06858 28-475): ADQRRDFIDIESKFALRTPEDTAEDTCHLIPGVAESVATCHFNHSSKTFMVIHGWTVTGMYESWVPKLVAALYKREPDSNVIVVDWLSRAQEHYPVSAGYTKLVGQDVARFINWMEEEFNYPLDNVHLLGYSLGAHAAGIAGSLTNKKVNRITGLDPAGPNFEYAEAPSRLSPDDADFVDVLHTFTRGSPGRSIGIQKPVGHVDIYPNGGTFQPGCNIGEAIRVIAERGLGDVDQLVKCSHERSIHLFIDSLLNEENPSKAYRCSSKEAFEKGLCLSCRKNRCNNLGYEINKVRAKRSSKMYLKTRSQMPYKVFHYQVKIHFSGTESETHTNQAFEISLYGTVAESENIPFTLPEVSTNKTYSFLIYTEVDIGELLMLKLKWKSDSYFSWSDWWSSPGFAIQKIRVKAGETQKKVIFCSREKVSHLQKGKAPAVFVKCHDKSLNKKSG
# T2 sequence (Q8IV16 21-151 partner limits assumed): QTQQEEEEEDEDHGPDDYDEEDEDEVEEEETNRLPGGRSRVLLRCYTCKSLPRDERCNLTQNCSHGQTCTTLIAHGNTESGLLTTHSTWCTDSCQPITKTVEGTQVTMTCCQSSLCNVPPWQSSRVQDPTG
# Experiment: RB assay (LPL:sGPIHBP1 pre-incubated with ANGPTL4, RB substrate)
# Assay type: biochemical
# Details: read-out: RB qAC50
# In short: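 LPL:sGPIHBP1 (5 nM diluted) was pre-incubated 60 min at RT with compound and ANGPTL4 (20 nM diluted), which cuts LPL activity by 80%. RB substrate (40 μM diluted) was then added and reacted 30 min at RT. The reaction was stopped with SDS, and fluorescence (ex 540/em 590 nm) was read 2 h later to detect LPL activation or ANGPTL4 inhibition.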
row,SMILES,EC50
1,"O=C(O)Cc1cc(F)ccc1NC(=O)c1ccc(N2CCCCC2)c(NC(=O)c2nn(CC(F)(F)F)c3cnccc23)c1 [Compound 112, 2-(5-fluoro-2-(4-(piperidin-1-yl)-3-(1-(2,2,2-trifluoroethyl)-1H-pyrazolo[3,4-c]pyridine-3-carboxamido)benzamido)phenyl)acetic acid]",6.4 µM
2,O=C(O)Cc1cc(F)ccc1NC(=O)c1ccc(N2CCC(O)CC2)c(NC(=O)c2nn(CC(F)(F)F)c3ccccc23)c1 [Example 75],> 25 µM
3,"O=C(O)Cc1cc(F)ccc1NC(=O)c1ccc(N2CCCCC2)c(C(=O)Nc2nn(CC(F)(F)F)c3ccccc23)c1 [Compound 41, 2-(5-fluoro-2-(4-(piperidin-1-yl)-3-((1-(2,2,2-trifluoroethyl)-1H-indazol-3-yl)carbamoyl)benzamido)phenyl)acetic acid]",4.8 µM
4,"CC(C)Cn1nc(C(=O)Nc2cc(C(=O)Nc3ccc(F)cc3CC(=O)O)ccc2N2CCCCC2)c2ccccc21 [Compound 95, 2-(5-fluoro-2-(3-(1-isobutyl-1H-indazole-3-carboxamido)-4-(piperidin-1-yl)benzamido)phenyl)acetic acid]",5 µM
5,"COCCn1nc(C(=O)Nc2cc(C(=O)Nc3ccc(F)cc3CC(=O)O)ccc2N2CCCCC2)c2ccccc21 [Compound 105, 2-(5-fluoro-2-(3-(1-(2-methoxyethyl)-1H-indazole-3-carboxamido)-4-(piperidin-1-yl)benzamido)phenyl)acetic acid]",14 µM
6,"N#CC1(Cn2nc(C(=O)Nc3cc(C(=O)Nc4ccc(F)cc4CC(=O)O)ccc3N3CCCCC3)c3ccccc32)CC1 [Compound 127, 2-(2-(3-(1-((1-cyanocyclopropyl)methyl)-1H-indazole-3-carboxamido)-4-(piperidin-1-yl)benzamido)-5-fluorophenyl)acetic acid]",4.3 µM
7,CCC(C(=O)O)c1cc(F)ccc1NC(=O)c1ccc(N2CCCCC2)c(NC(=O)c2nn(CC(F)(F)F)c3ccccc23)c1 (stereo not drawn) [Example 28],4.2 µM
8,COC1CCN(c2ccc(C(=O)Nc3ccc(F)cc3CC(=O)O)cc2NC(=O)c2nn(CC(F)(F)F)c3ccccc23)CC1 [Example 65],> 7.1 µM
9,"O=C(O)Cc1cc(F)ccc1NC(=O)c1ccc(N2CCCCC2)c(NC(=O)c2nn(CC(F)F)c3ccccc23)c1 [Compound 96, 2-(2-(3-(1-(2,2-difluoroethyl)-1H-indazole-3-carboxamido)-4-(piperidin-1-yl)benzamido)-5-fluorophenyl)acetic acid]",4.7 µM
10,"Cc1cccc2c(C(=O)Nc3cc(C(=O)Nc4ccc(F)cc4CC(=O)O)ccc3N3CCCCC3)nn(CC(F)(F)F)c12 [Compound 144, 2-(5-fluoro-2-(3-(7-methyl-1-(2,2,2-trifluoroethyl)-1H-indazole-3-carboxamido)-4-(piperidin-1-yl)benzamido)phenyl)acetic acid]",5.8 µM
